The subject of data set [1] is various dicot weed species. Kind of data set: Selectivity assessment, dicot weed species compared to bluegrass. Type of data set: in vivo. The following applies: range over various weed species. From the text: Kentucky bluegrass seeds were purchased in a bag under the commercial name of. Individual seeds were sown for each pot (1.5″ wide×3″ deep) with approximately 7.5 g of soil for each plot. 10 seeds/plot was sown into numerous plots. After one month of germination, germinated plants were counted in each plot and this number was used for the total number of plants challenged per plot in the toxicity assessment.
The total number of plants were counted in each plot in 24×6 hexagonal small plot planter tray. The number of germinated seeds in each plot was enumerated after one month, and for each plot this number was recorded and used as the total for each plot. Differing concentrations of thymyloxyacetic acid was applied in 5% Triton-X 100 and 1:1 molar ratio potassium hydroxide:thymyloxyacetic acid to aid in the solubility of the compound in water. Ten mL of solution was applied to each plot, and the mortality of the plants was assessed at 3 days and 2 weeks post application (for some treatments). Mortality at these time points were enumerated out of the total plants germinated in each plot at the beginning of the assay. At both time points, the total number of dead plants and total number of plants at the beginning of the assay were recorded for each observation. A Probit model was used to calculate the LC50 values for each of the compounds explored in this assay. […]

The subject of data set [2] is Palmer Amaranth (Amaranthus palmeri). The experiment in a line: Toxicity assay (probit LC50), Palmer amaranth. Format: in vivo. An excerpt: Palmer amaranth seeds were obtained from the Department of Agronomy at Iowa State University. Individual seeds were sown for each pot (1.5″ wide×3″ deep) with approximately 7.5 g of soil for each plot. Five seeds/plot were sown into numerous plots. After one month of germination, germinated plants were counted in each plot and this number was used for the total number of plants challenged per plot in the toxicity assessment
The total number of plants were counted in each plot in 24×6 hexagonal small plot planter tray. The number of germinated seeds in each plot was enumerated after one month, and for each plot this number was recorded and used as the total for each plot. Differing concentrations of thymyloxyacetic acid was applied in 5% Triton-X 100 and 1:1 molar ratio potassium hydroxide:thymyloxyacetic acid to aid in the solubility of the compound in water. Ten mL of solution was applied to each plot, and the mortality of the plants was assessed at 3 days and 2 weeks post application (for some treatments). Mortality at these time points were enumerated out of the total plants germinated in each plot at the beginning of the assay. At both time points, the total number of dead plants and total number of plants at the beginning of the assay were recorded for each observation. A Probit model was used to calculate the LC50 values for each of the compounds explored in this assay. A formulation control (with no active ingredient) was screened against a number of plants and factored into the final probit model. This formulation control had little-to-no effect by itself.

Regarding `Cc1ccc(C(C)C)c(OCC(=O)O)c1` [thymyloxyacetic acid, 2-(2-isopropyl-5-methylphenoxy)acetic acid], the “selectivity ratio compared to a blue grass species” value in data set [1] was 2.06-5 fold. For the same compound, the “LC50 Value” stood at 1700 ppm in data set [2] (Palmer Amaranth (Table 6)); 1350 ppm in data set [2] (Palmer Amaranth, 2-week post application, probit); 1700 ppm in data set [2] (Palmer Amaranth, 3-day post application, probit). In addition, the “Selective Toxicity Compared to Bluegrass” value in data set [2] (Palmer Amaranth compared to bluegrass) is reported as 2.06.

These data come from patent US12213479B2, “Monoterpenoid/phenylpropanoid-containing compounds and methods of their making and use as herbicides” (KITTRICH CORPORATION, priority 2016, dated 2025).
